From US20190017017A1, “USE OF VASCULAR CELLS TO CREATE THE CONVENTIONAL OUTFLOW TRACT” (THE RESEARCH FOUNDATION FOR THE STATE UNIVERSITY OF NEW YORK, priority 2016, published 2019)

Tests used:
[1] = tested on: HTM cells; test: Outflow facility of porous scaffolds bearing cultured HTM cells (perfusion); assay type: cell-based, human; conditions: FIG. 15
Text: TM cells and SC cell-like cells co-cultured on a porous scaffold in accordance with aspects of the present disclosure may serve as a system to model conventional outflow tract function, physiology, and pathophysiology. FIG. 13A is a diagrammatic representation of a testing apparatus for performing perfusion-related testing in accordance with aspects of the present disclosure. A syringe pump or other pressure source may feed into a holder for a porous scaffold, with TM and SC cell-like cells co-cultured thereupon, with pressure controlled and measured by a pressure transducer. The pressure across the porous scaffold and cells, and other aspects related to pressure such as through-flow, flow rate, resistance to flow, hydraulic conductivity, and other indicia of conventional outflow tract function may be measured. For example, fluids can be perfused across the co-culture-bearing scaffold and aspects of fluid mechanics measured as an indication of conventional outflow tract function. […] Aspects of membrane pressure, outflow dynamics, and cellular function can similarly be measured under different conditions known or hypothesized to replicate disease states, or lack thereof, or conditions known or believed to prevent, ameliorate, or cure disease or pathological states. In an example, fluid may be perfused across a porous scaffold bearing co-cultured TM and SC cell-like cells and effects of transmembrane pressure, flow rate, through-flow, resistance to flow, hydraulic conductivity, vacuole dynamics, pore formation, or outflow facility of the co-cultured TM cells and SC cell-like cells may be measured. […] Other aspects of cellular physiology or function may similarly be measured, in response or relation to perfusion or otherwise. […]
A perfusion apparatus was used as described in publicly available literature and in accordance with the apparatus illustrated in FIG. 13. […] Vacuole/pore size were measured using the embedded LEO electron microscopy image software. […]

[2] = tested on: HTM/HMVEC constructs; test: qPCR and western blot of outflow pathway markers in co-cultured constructs exposed to pharmacologic agents; assay type: cell-based, human; conditions: qPCR and western blotting; FIGS. 14A-E
Protocol: Total RNA was extracted from samples using an RNeasy Plus Mini kit (Qiagen Inc., Valencia, Calif.). RNA concentrations were determined using a NanoDrop spectrophotometer. 50 ng of RNA per sample was used for each qPCR experiments. qPCR was carried out using TAQMAN RNA-TO-CT™ 1-Step Kit (Applied Biosystems, Carlsbad, Calif.) and performed on an AB StepOnePlus Real Time PCR system (Life Technologies, Carlsbad, Calif.) using primers for αB-crystallin, PECAM-1, fibulin-2, collagen type IV, fibronectin, laminin and GAPDH.
The temperature profile was as follows: 48° C. for 15 min (reverse transcription step), followed by an enzyme activation step of 95° C. for 10 min, 40 cycles of 15 s denaturation at 95° C. and 1 min anneal/extend at 60° C. Relative quantitation data analysis was performed using the comparative quantification method, ΔΔCt, with GAPDH as the endogenous reference. […]
FIGS. 14A-E show gene (left panels, qPCR) and protein (right, western blots) expression patterns of co-cultured HTM/HVEC constructs. HTM-HMVEC and HTM-HSC constructs were contacted with pharmacologic agents that regulate outflow and expression levels of various genes and proteins (α-SMA, collagen IV, fibronectin, myocillin) measured by qPCR and western blotting. […]

Compound	effect on outflow facility [1]	response (expression of α-SMA, collagen IV, fibronectin, myocillin) of HTM-HMVEC constructs compared with HTM-HSC constructs [2]
TGFβ	inhibit	responds similar
C[C@@H](N)[C@H]1CC[C@H](C(=O)Nc2ccncc2)CC1 [Y27632]	stimulate	responds similar
CC(=O)OCC(=O)[C@@]1(O)CC[C@H]2[C@@H]3CCC4=CC(=O)C=C[C@]4(C)[C@H]3C(=O)C[C@@]21C [prednisone acetate]	inhibit	
